# Tests used:
# Type in all cases: cell-based
# [1] = test system: AKT protein phosphorylated on serine 473 (pAKT-S473) in PC3 human prostate carcinoma cells; assay: pAKT expression in PC3 human prostate carcinoma cells measured by western blotting (test A); details: PC-3, 1 to 2 h incubation, absolute IC50
# Method: (§1) The inhibitory activity of the molecules on AKT phosphorylation is measured either by western blotting using the technique described below, or by the MSD Multi-spot Biomarker detection technique from Meso Scale Discovery also described below.
# Study of pAKT Expression in PC3 Human Prostate Carcinoma Cells Measured by Western Blotting (test A):
# This test is based on measuring the expression of the AKT protein phosphorylated on serine 473. The phosphorylation of AKT (pAKT) is measured by western blotting in the PC3 human prostate carcinoma line (ATCC CRL-1435), using an antibody that specifically recognises pAKT-S473.
# (§2) On day 1, the PC3 cells are seeded into 6-well plates (TPP, #92006) at the concentration of 0.8×10^6 cells/well in 1800 μl of DMEM medium (DMEM Gibco #11960-044) containing 10% of foetal calf serum (SVF Gibco, #10500-056) and 1% glutamine (L-Glu Gibco #25030-024), and incubated at 37° C., 5% CO2, overnight.
# (§3) On day 2, the cells are incubated in the presence or absence of the test products for 1 to 2 hours at 37° C. in the presence of 5% CO2. The molecules, diluted in dimethyl sulphoxide (DMSO Sigma #D2650), are added from a 10-times concentrated stock solution, the final percentage of DMSO being 0.1%. The molecules are tested either at a single concentration of less than or equal to 10 μM, or at increasing concentrations in a range that can extend from less than 1 nM to 10 μM.
# After this incubation, the cells are lysed for the preparation of the proteins. After the culture medium has been drawn off, the cells are rinsed with 1 ml of PBS (DPBS Gibco, #14190-094), recovered by scraping in 200 μl of complete HNTG buffer and transferred into a 96-well plate (Greiner #651201), and lysed for 1 h on ice. The HNTG buffer is composed of the following mixture: 50 mM hepes, 150 mM NaCl, 1% triton, 10% glycerol, with extemporaneous addition of one Mini Protease Inhibitor Cocktail tablet (Roche 1836153) and of one Phosphatase Inhibitor Cocktail tablet (Roche104906837001) per 10 ml of buffer.
# The lysate is centrifuged for 10 min at 6000 rpm. 155 μl of supernatant are recovered. 150 μl are incubated for denaturation for 5 min at 95° C. in the presence of 4× NuPAGE LDS Sample Buffer diluted 4-fold (InVitrogen ref NP0007) and of 10× NuPAGE Sample Reducing Agent diluted 10-fold (InVitrogen ref NP0009). These samples are then frozen at −20° C. 5 μl are assayed by the microBCA technique according to the technical bulletin of the MicroBCA Protein Assay Kit (Pierce #23235).
# For protein separation, 20 μg of proteins are loaded on to a NU-PAGE 4-12% Bis Tris Gel 12 well (InVitrogen ref NP0322BOX) and the migration is carried out for 1 h 30 in 20× NU-PAGE MOPS SDS Running Buffer diluted 20-fold (InVitrogen ref NP0001), at 150 volts.
# The gel is then transferred on to an Invitrolon PVDF membrane (Invitrogen #LC2007) permeabilised before and after a few seconds in ethanol (Ethanol Fischer Scientific #E/0600DF/15).
# The transfer is carried out in a Biorad tank at 30 volts overnight or at 60 volts for 3 hours, in the presence of 20× NUPAGE Transfer Buffer diluted 20-fold (InVitrogen ref NP0006).
# The membrane is then saturated in saturating solution composed of TBS (10× Tris Buffered Saline, Sigma #T5912, diluted 10-fold), 0.1% Tween 20 (Sigma #P5927) and 3% BSA (Bovine Albumin Serum Fraction V, Sigma #A4503) for 6 h after overnight transfer or else for 1 h after transfer for a period of 3 h.
# The primary antibodies are diluted to 1/1000 for the anti-phospho AKT-Ser473 antibody (1931-12, rabbit monoclonal, cat#4058 from Cell Signaling Technology Abcam), in saturating solution composed of PBS, 0.1% Tween 20 and 3% BSA, and then shaken overnight at 4° C.
# Two rinses for 5 min in washing solution composed of TBS and 0.1% Tween 20 are carried out before hybridisation of the secondary antibodies. […]
# [2] = test system: translocation of the LC3 protein in Hela GFP-LC3 cells; assay: Translocation of the LC3 protein in Hela human cells measured by image analysis cytometry (test C, autophagy); details: Homo sapiens, HeLa, 2 h, EBSS + 10 μM hydroxychloroquine, cells with LC3 granulations, absolute IC50
# Method: Inhibitory activity of the molecules on autophagy is measured by means of the translocation of the LC3 protein from the cytoplasm to the autophagosomes. For this, Hela cells were transfected with a vector encoding the chimeric protein GFP-LC3. A Hela clone stably expressing the GFP-LC3 protein was selected.
# Study of the Translocation of the LC3 Protein in Hela Human Cells, Measured by Image Analysis Cytometry (Test C):
# as §2, with “Hela GFP-LC3” for “PC3”, “96-well” for “6-well”, “coated with poly-D-lysine (Greiner, #655946)” for “(TPP, #92006)”, “15000” for “0.8×10^6”, “200” for “1800”, “(FCS” for “(SVF”
# On day 2, the cells are washed twice with EBSS (Sigma #E3024). The cells are then incubated in EBSS, 10 μM hydroxychloroquine and test products, for 2 hours at 37° C. in the presence of 5% CO2. The molecules are diluted in dimethyl sulphoxide (DMSO Sigma #D2650), the final DMSO percentage being 0.1%. The molecules are tested at increasing concentrations in a range that can extend from 10 nM to 1 μM.
# After this incubation, the cells are fixed with 4% paraformaldehyde (Sigma #HT501128 4L) for 10 min. The cells are then washed twice with PBS and the nuclei then stained with 2 μg/ml of Hoechst 33342 (Invitrogen #H3570). The 96-well plates are then read with the iCyte image analysis cytometer (Compucyte).
# The activity of the product is translated to IC50, obtained from a dose-response curve of various concentrations tested and representing the dose giving 50% specific inhibition (absolute IC50). 2 independent experiments make it possible to calculate the mean of the IC50 values.
# [3] = test system: AKT protein phosphorylated on serine 473 (P-AKT-S473) in PC3 human prostate carcinoma cells; assay: pAKT expression in PC3 human prostate carcinoma cells measured by MSD Multi-spot Biomarker detection (test B); details: Homo sapiens, PC-3, P-AKT-S473, PC3 cells, MSD sandwich immunoassay, 1 to 2 h incubation, absolute IC50
# Method: as §1
# Study of pAKT Expression in PC3 Human Prostate Carcinoma Cells Measured by the MSD Multi-Spot Biomarker Detection Technique from Meso Scale Discovery (Test B):
# This test is based on measuring the expression of the AKT protein phosphorylated on serine 473 (P-AKT-S473), in the PC3 human prostate carcinoma line, by means of the technique based on a sandwich immunoassay using the MSD Multi-spot Biomarker Detection kit from Meso Scale Discovery: phospho-Akt (Ser473) whole cell lysate kit (#K151CAD) or phospho-Akt (Ser473)/Total Akt whole cell lysate kit (#K151OOD). The primary antibody specific for P-AKT-S473 (Kit #K151CAD) is coated onto an electrode in each well of the 96-well plates of the MSD kit: after the addition of a protein lysate to each well, the signal is visualised by adding a secondary detection antibody labelled with an electrochemoluminescent compound. The procedure followed is that described in the kit.
# as §2, with “96-well” for “6-well”, “#92096)” for “#92006)”, “35 000” for “0.8×10^6”, “200” for “1800”, “(FCS” for “(SVF”
# as §3, with “h” for “hours”, “5% of” for “5%”, “20-times” for “10-times”
# After this incubation, the cells are lysed for the preparation of the proteins. For this, after the culture medium has been drawn off, 50 μl of complete Tris Lysis Buffer of the MSD kit containing the protease and phosphatase inhibitor solutions are added to the wells and the cells are lysed for 1 h at 4° C. with shaking. At this stage, the plates containing the lysates can be stored at −20° C. or at −80° C.
# The wells of the 96-well plates of the MSD kit are saturated for 1 h at ambient temperature with the blocking solution of the MSD kit. Four washes are carried out with 150 μl of Tris Wash Buffer of the MSD kit. The lysates previously prepared are transferred into the 96-well multi-spot plates of the MSD kit and incubated for 1 h at ambient temperature, with shaking. Four washes are carried out with 150 μl of Tris Wash Buffer of the MSD kit. 25 μl of the MSD sulfo-tag detection antibody solution are added to the wells and incubated for 1 h at ambient temperature, with shaking. Four washes are carried out with 150 μl of Tris Wash Buffer of the MSD kit. 150 μl of Read Buffer of the MSD kit are added to the wells and the plates are read immediately on the S12400 instrument from Meso Scale Discovery.
# The instrument measures a signal for each well. Wells without cells and containing the lysis buffer serve to determine the background noise that will be subtracted from all the measurements (min). The wells containing cells in the absence of product and in the presence of 0.1% DMSO are considered to be the 100% signal (max). The percentage inhibition is calculated for each concentration of test product according to the following formula: (1-((test−min)/(max−min)))×100.
# The activity of the product is translated to IC50, obtained from a dose-response curve of the various concentrations tested and representing the dose giving 50% specific inhibition (absolute IC50). 2 independent experiments make it possible to calculate the mean of the IC50 values.
# [4] = test system: P. falciparum (highly chloroquine-resistant strain Fcm29-Cameroon); assay: Antimalarial activity test (radioactive micromethod of Desjardins, tritiated hypoxanthine incorporation); details: Plasmodium falciparum, Erythrocyte, infected human erythrocytes, 48 h
# Method: Antimalarial Activity Test
# The antimalarial activity tests are carried out according to the radioactive micromethod of Desjardins (R. E. Desjardins, C. J. Canfield, J. D. Haynes, J. D. Chulay, Antimicrob. Agents Chemother., 1979, 16, 710-718). The assays are carried out in 96-well microplates (Test Plates Ref. 92696, Techno Plastic Products Ag, Zollstrasse 155, CH-8219 Trasadingen). The P. falciparum strains are cultured in solutions of RPMI 1640 supplemented with 5% of human serum with a haematocrit at 2% and a blood parasite concentration at 1.5%. For each assay, the parasites are incubated with selected concentrations of drugs for 48 h at 37° C. in a humid atmosphere and at 5% CO2. Artemisinin, artesunate and also chloroquine diphosphate are used as reference molecules. The first dilution of the drug is prepared at 1 mg/ml in dimethyl sulphoxide. The range of dilutions of the successive daughter solutions is also prepared in dimethyl sulphoxide. Each daughter dilution is subsequently diluted to 1/50 in RPMI 1640 supplemented with 5% of human serum, all the dilutions being carried out at 37° C. These dilutions are then added to the parasites in culture in the microplates. After addition of the drug, the parasites are in culture in RPMI 1640 containing 5% of human serum and 1% of dimethyl sulphoxide. The parasite growth is measured by incorporation of tritiated hypoxanthine (added 24 h after the beginning of the exposure to the drug) compared with the incorporation in the absence of drug.
# The activity of the product is translated to % inhibition of the growth of P. falciparum (highly chloroquine-resistant strain Fcm29-Cameroon) at 1 μM and 0.1 μM in an in vitro test using infected human erythrocytes.
Compound,IC50 [1] [nM],IC50 [2] [nM],IC50 [3] [nM],inhibition at 0.1 µM ([4]; 0.1 μM) [%],inhibition at 1 µM [4] [%]
"CC(c1ccccc1)N1c2nc(N3CCOCC3)cc(=O)n2C[C@@]1(C)C(F)(F)F (mixture of isomers) [Example 16, (2S)-2-Methyl-7-(morpholin-4-yl)-1-((R) and (5)-1-phenylethyl)-2-(trifluoromethyl)-2,3-dihydroimidazo[1,2-a]pyrimidin-5(1H)-one]",79,–,–,–,–
"CCC(c1ccccc1)N1c2nc(N3CCOCC3)cc(=O)n2C[C@@]1(C)C(F)(F)F (single isomer, unassigned) [Example 14, (S)-2-Methyl-7-morpholin-4-yl-1-((S) or (R)-1-phenylpropyl)-2-trifluoromethyl-2,3-dihydro-1H-imidazo[1,2-a]pyrimidin-5-one]",174,–,–,–,–
"C[C@@]1(C(F)(F)F)Cn2c(nc(N3CCOCC3)cc2=O)N1CCc1cccc(Cl)c1 [Example 29, (2S)-1-[2-(3-Chlorophenyl)ethyl]-2-methyl-7-(morpholin-4-yl)-2-(trifluoromethyl)-2,3-dihydroimidazo[1,2-a]pyrimidin-5(1H)-one]",–,261,6,–,52

# Further lines, with some results ahead:
IC50 [1] [nM],IC50 [2] [nM],IC50 [3] [nM],Compound,inhibition at 0.1 µM ([4]; 0.1 μM) [%],inhibition at 1 µM [4] [%]
324,145,–,"COc1ccc(CCN2c3nc(N4CCOCC4)cc(=O)n3CC2(C)C(F)(F)F)cc1 (racemic) [Example 2, (R,S)-1-[2-(4-methoxyphenyl)ethyl]-2-methyl-7-(morpholin-4-yl)-2-(trifluoromethyl)-2,3-dihydroimidazo[1,2-a]pyrimidin-5(1H)-one]",–,–
–,198,10,"C[C@@]1(C(F)(F)F)Cn2c(nc(N3CCOCC3)cc2=O)N1CCc1ccc(Cl)cc1 [Example 28, (2S)-1-[2-(4-Chlorophenyl)ethyl]-2-methyl-7-(morpholin-4-yl)-2-(trifluoromethyl)-2,3-dihydroimidazo[1,2-a]pyrimidin-5(1H)-one]",14,53

# From US8828997B2, “2,3-dihydro-1H-imidazo(1,2-a)pyrimidin-5-one derivatives, preparation thereof, and pharmaceutical use thereof” (Sanofi, priority 2009, dated 2014)
